In patent US4762843A, “Hetero [f] fused carbocyclic pyridines as dopaminergic agents” (Warner-Lambert Company, priority 1987, dated 1988):
Where a name gives a salt, the structure may show the parent alone. Read-outs that look alike come from different tables or passages of the source. Each block holds one molecule with its values, some of them ahead of it.

Experiments:
[1] = test system: locomotor activity in mice; experiment: Inhibition of locomotor activity in mice; type: in vivo; conditions: Mus musculus, read-out: Inhibition of Locomotor Activity in Mice (ED50)
Method: (§1) The compounds of formula I are valuable dopaminergic agents. […] Thus, the compounds of formula I were tested for their ability to inhibit locomotor activity in mice according to the assay described in Pharmacol. Biochem. Behav. 1978 (8) 97; for their ability to inhibit haloperidol binding in a receptor binding assay described in Mol. Pharmacol. 1976 (12) 800; and for their ability to inhibit dopamine synthesis in rats according to the protocol described in Naumyn-Schmiedeberg's Arch. Pharmacol., 1976 (296) 5. The above test methods are incorporated herein by reference.

haloperidol binding = biological target: T1, haloperidol binding (Bos taurus, UniProt P20288); experiment: Inhibition of haloperidol binding in a receptor binding assay; conditions: read-out: Percent Inhibition Haloperidol Binding
T1 construct: from tissue
T1 sequence (P20288 whole entry): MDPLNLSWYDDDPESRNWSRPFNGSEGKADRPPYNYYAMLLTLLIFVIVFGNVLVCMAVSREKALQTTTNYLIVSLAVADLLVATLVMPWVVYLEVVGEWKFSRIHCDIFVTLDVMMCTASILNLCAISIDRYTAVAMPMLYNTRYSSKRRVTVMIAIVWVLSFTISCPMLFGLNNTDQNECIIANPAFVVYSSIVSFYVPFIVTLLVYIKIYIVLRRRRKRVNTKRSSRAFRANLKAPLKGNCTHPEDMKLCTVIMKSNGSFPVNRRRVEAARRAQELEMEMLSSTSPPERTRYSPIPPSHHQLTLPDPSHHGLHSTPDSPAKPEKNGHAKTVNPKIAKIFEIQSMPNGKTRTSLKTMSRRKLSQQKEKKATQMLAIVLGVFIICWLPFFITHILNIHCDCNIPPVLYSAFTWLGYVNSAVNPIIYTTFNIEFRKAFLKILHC
Method: as §1

dopamine synthesis = experiment: Inhibition of dopamine synthesis in rats; type: in vivo; conditions: Rattus norvegicus, read-out: Percent Inhibition of Dopamine Synthesis
Method: as §1

inhibition at 5 µM (haloperidol binding; at 5 × 10^-6 M): 61%
SMILES: Nc1nc2c(s1)CCC1C2=CCCN1Cc1ccccc1 (racemic) [Example 5g, (±) 4,5,5a,6,7,8-Hexahydro-6-(phenylmethyl)thiazolo [4,5-f]quinolin-2-amine, dihydrochloride, hydrate]
ED50 ([1]; mice, IP): 26.1 mg/kg

SMILES: CCCN1CCC[C@H]2c3sc(N)nc3CC[C@@H]21 (racemic) [Example 17, (±) trans-4,5,5a,6,7,8,9,9a-Octahydro-6-propylthiazolo[5,4-f]quinolin-2-amine]
ED50 ([1]; ip): 0.7 mg/kg
inhibition at 1 µM (haloperidol binding): 37%
inhibition at 5 mg/kg (dopamine synthesis): 100%

SMILES: Nc1nc2c(s1)CCC1NCCC=C21 (racemic) [Example 40, (±) 4,5,5a,6,7,8-Hexahydrothiazolo[4,5-f]quinolin-2-amine, dihydrochloride]
ED50 ([1]; ip): 11.6 mg/kg
inhibition at 5 µM (haloperidol binding): 77%
inhibition at 10 mg/kg (dopamine synthesis): 44%

inhibition at 5 µM (haloperidol binding; at 5 × 10^-6 M): 23%
SMILES: CCCN1CCC=C2c3nc(NC(C)=O)sc3CCC21 (racemic) [Example 15a, (±) N-(4,5,5a,6,7,8-Hexahydro-6-propylthiazolo[4,5-f]quinolin-2-yl)acetamide]
ED50 ([1]; mice, IP): 16.3 mg/kg

inhibition at 5 µM (haloperidol binding; at 5 × 10^-6 M): 67%
SMILES: Nc1nc2c(s1)CCC1C2=CCCN1CCc1ccccc1 (racemic) [Example 5f, (±) 4,5,5a,6,7,8-Hexahydro-6-(2-phenylethyl)thiazolo [4,5-f]quinolin-2-amine]
ED50 ([1]; mice, IP): 31.3 mg/kg

SMILES: CCCN1CCC=C2c3nc(N)sc3CCC21 (single isomer, unassigned; (+)) [Example 16, (+) 4,5,5a,6,7,8-hexahydro-6-propylthiazolo[4,5-f]quinolin-2-amine, dihydrochloride]
ED50 ([1]; ip): 2.5 mg/kg
inhibition at 5 µM (haloperidol binding): 76%
inhibition at 3 mg/kg (dopamine synthesis): 100%

SMILES: Nc1nc2c(s1)CCC1C2=CCCN1CC1CC1 (racemic) [Example 5e, (±) 6-(Cyclopropylmethyl)-4,5,5a,6,7,8-hexahydrothiazolo[4,5-f]quinolin-2-amine, dihydrochloride]
ED50 ([1]; ip): 12 mg/kg
inhibition at 1 µM (haloperidol binding): 62%

inhibition at 10 µM (haloperidol binding; at 1 × 10^-5): 21%
SMILES: C=CCN1CCC=C2c3nc(NC(C)=O)sc3CCC21 (racemic) [Example 15b, (±) N-[4,5,5a,6,7,8-Hexahydro-6-(2-propenyl)thiazolo [4,5-f]quinolin-2-yl]acetamide]
ED50 ([1]; mice, IP): 3.1 mg/kg
inhibition at 5 mg/kg (dopamine synthesis; rats, at 5 mg/kg): 82%

SMILES: CCCN1CCC=C2c3nc(N)sc3CCC21 (racemic) [Example 5, (±) 4,5,5a,6,7,8-Hexahydro-6-propylthiazolo[4,5-f]quinolin-2-amine]
ED50 ([1]; ip): 5.5 mg/kg
inhibition at 1 µM (haloperidol binding): 43%
inhibition at 5 mg/kg (dopamine synthesis): 53%

SMILES: C=CCN1CCC=C2c3nc(N)sc3CCC21 (racemic) [Example 5d, (±) 4,5,5a,6,7,8-Hexahydro-6-(2-propenyl)thiazolo [4,5-f]quinolin-2-amine, dihydrochloride]
ED50 ([1]; ip): 0.24 mg/kg
inhibition at 5 mg/kg (dopamine synthesis): 100%

SMILES: CN1CCC=C2c3nc(N)sc3CCC21 (racemic) [Example 5a, (±) 4,5,5a,6,7,8-Hexahydro-6-methylthiazolo[4,5-f]quinolin-2-amine]
ED50 ([1]; ip): 2.6 mg/kg
inhibition at 5 µM (haloperidol binding): 62%
inhibition at 10 mg/kg (dopamine synthesis): 92%

SMILES: CCN1CCC=C2c3nc(N)sc3CCC21 (racemic) [Example 5b, (±) 6-Ethyl-4,5,5a,6,7,8-hexahydrothiazolo[4,5-f]quinolin-2-amine]
ED50 ([1]; ip): 0.62 mg/kg
inhibition at 5 µM (haloperidol binding): 68%
inhibition at 1 mg/kg (dopamine synthesis): 60%

SMILES: CCCCN1CCC=C2c3nc(N)sc3CCC21 (racemic) [Example 5c, (±) 6-Butyl-4,5,5a,6,7,8-hexahydrothiazolo[4,5-f]quinolin-2-amine, dihydrochloride, hemihydrate]
ED50 ([1]; ip): 14.7 mg/kg
inhibition at 10 µM (haloperidol binding): 70%
inhibition at 10 mg/kg (dopamine synthesis): 18%
